Measurements: article PMC4904373, “Azole Antifungal Sensitivity of Sterol 14α-Demethylase (CYP51) and CYP5218 from Malassezia globosa” (Scientific Reports, 2016)
Values after ≈ are worked out from the molar mass of the structure shown. Values joined by “and” are separate entries in the source; they are usually repeats but may differ in a detail not shown here. Equal values may be shown once. Read-outs that look alike come from different tables or passages of the source.

Key:
[1] = test system: M. globosa
[2] = molecular target: T1, M. globosa CYP51 (Malassezia globosa, UniProt A8Q3I7, A7V/E4L/G6A/I5L/L2A/Q3L/W8F); assay: biochemical
Protocol: Sterol metabolites were recovered by extraction with ethyl acetate followed by derivatization with 0.1 ml N,O-bis(trimethylsilyl)trifluoroacetamide (BSTFA) : trimethylchlorosilane (TMCS) (99:1) and 0.3 ml anhydrous pyridine (2 h at 80 °C) prior to analysis by gas chromatography mass spectrometry (GC/MS)[53].

[3] = molecular target: T1, M. globosa CYP51; assay: biochemical; assay type: binding
Protocol: (§1) Reduced carbon monoxide difference spectroscopy[46][47] and absolute spectra between 700 and 300 nm were used to determine cytochrome P450 concentrations. Substrate and azole binding studies were performed[31][48] using 2.5 mM stock sterol solutions in 40% (wt/vol) (2-hydroxypropyl)-β-cyclodextrin (HPCD), 4 mg ml^−1 solutions of fatty acids in dimethylformamide (DMF), and stock 0.05, 0.1 and 0.2 mg ml^−1 solutions of azole antifungal agents in dimethylsulfoxide (DMSO). Sterols were titrated against 5 μM CYP51, fatty acids were titrated against 4 μM CYP5218 and azole antifungal agents were titrated against 2 μM CYP51 and CYP5218. The absorbance difference spectrum between 500 and 350 nm was determined after each incremental addition of ligand with saturation curves constructed from ΔApeak-trough against ligand concentration. The dissociation constants (Kd) for sterols and fatty acids were determined by non-linear regression (Levenberg-Marquardt algorithm) using the Michaelis-Menten equation. The dissociation constants of the enzyme-azole complex were determined by non-linear regression (Levenberg-Marquardt algorithm) using a rearrangement of the Morrison equation for tight ligand binding. ProFit 6.1.12 (QuantumSoft, Zurich, Switzerland) was used for curve-fitting data. All ligand-binding studies were performed at 22 ± 2 °C and in triplicate. All spectral determinations were made using a Hitachi U-3310 UV/VIS spectrophotometer (San Jose, California).

[4] = molecular target: M. globosa CYP5218 (Malassezia globosa, UniProt A8QCD3, A3L/A5L/F6A/I7V/S4L/S8F); assay: biochemical; assay type: binding; settings: for azole binding to CYP5218 (binding spectra): 2 μM CYP5218, result in words
Protocol: as §1

[5] = test system: M. globosa ATCC MYA-4612; assay: M. globosa MIC100 determination; assay type: cell-based, Malassezia globosa; settings: for MIC: Malassezia globosa, 168 h, read-out: MIC100
Protocol: M. globosa ATCC MYA-4612 was grown for 7 days at 30 °C in modified Dixon medium (3.6% malt extract, 2% desiccated ox-bile, 1% Tween 40, 0.6% peptone, 0.2% glycerol, 0.2% oleic acid, pH adjusted to 6 with HCl) until a culture density of 1.5 × 10^5 cells ml^−1 was obtained. Cells from 3 ml of stock culture were harvested, suspended in 1 ml of saline and used to inoculate 30 ml of fresh modified Dixon medium for use as M. globosa inoculums in MIC determinations. Stock azole concentrations of 1600, 800, 400, 200, 100, 50, 25, 12.5, 6.25, 3.125 and 0 μg ml^−1 were prepared in DMSO. These were diluted ten-fold with fresh modified Dixon media and 20 μl of the diluted azole solutions were then mixed with 180 μl of M. globosa inoculum in microtiter plate wells to yield final azole concentrations of 16, 8, 4, 2, 1, 0.5, 0.25, 0.125, 0.0625, 0.03125 and 0 μg ml^−1. The microtiter plates were incubated at 30 °C for 7 days and then read. Each azole MIC100 determination was performed in triplicate.

[6] = test system: M. globosa; settings: cited from earlier work
[7] = molecular target: H. sapiens CYP51; set-up: method as in PMID 23826084; settings: cited from earlier work
[8] = molecular target: C. albicans CYP51; set-up: method as in PMID 23826084; settings: cited from earlier work
[9] = test system: M. globosa; assay: Sterol analysis of azole-treated M. globosa; assay type: cell-based, Malassezia globosa; settings: 4 μg ml^−1 ketaminazole
Protocol: Individual sterols were identified by reference to relative retention times, mass ions and fragmentation patterns. Sterol composition was calculated using peak areas.

T1 sequence (A8Q3I7 whole entry L2A/Q3L/E4L/I5L/G6A/A7V/W8F): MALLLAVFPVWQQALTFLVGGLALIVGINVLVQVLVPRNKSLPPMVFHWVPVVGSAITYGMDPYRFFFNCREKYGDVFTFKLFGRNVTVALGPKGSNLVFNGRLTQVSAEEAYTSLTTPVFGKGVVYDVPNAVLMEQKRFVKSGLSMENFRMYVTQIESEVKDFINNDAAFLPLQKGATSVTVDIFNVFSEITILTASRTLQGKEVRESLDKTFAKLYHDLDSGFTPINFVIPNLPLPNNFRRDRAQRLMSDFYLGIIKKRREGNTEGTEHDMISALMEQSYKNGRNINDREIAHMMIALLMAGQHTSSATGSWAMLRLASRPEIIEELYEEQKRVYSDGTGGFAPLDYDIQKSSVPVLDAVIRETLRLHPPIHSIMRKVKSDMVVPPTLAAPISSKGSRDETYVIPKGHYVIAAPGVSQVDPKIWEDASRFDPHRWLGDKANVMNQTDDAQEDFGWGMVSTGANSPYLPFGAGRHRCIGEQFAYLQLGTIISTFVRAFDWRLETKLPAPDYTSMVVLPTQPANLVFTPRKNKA

C=CC[C@@H]1/C=C(\C)C[C@H](C)C[C@H](OC)[C@H]2O[C@@](O)(C(=O)C(=O)N3CCCC[C@H]3C(=O)O[C@H](/C(C)=C/[C@@H]3CC[C@@H](O)[C@H](OC)C3)[C@H](C)[C@@H](O)CC1=O)[C@H](C)C[C@@H]2OC [FK-506]
concentration above which cytotoxic towards M. globosa [1]: above 0.0625 μg ml^−1

OC(Cn1cncn1)(Cn1cncn1)c1ccc(F)cc1F [fluconazole]
IC50 ([2]; IC50, 0.5 μM CYP51, CYP51:AfCPR1 1:2, 50 μM lanosterol as substrate): 206 nM and 200 nM
Kd [3]: 11 ± 4 nM
azole binding to CYP5218 (binding spectra) [4]: did not bind
azole binding to CYP5218 (binding spectra) ([4]; listed as Fluconazole): no reproducible binding spectra
MIC ([5]; modified Dixon medium, 30 °C, 7 days): 64 µg/mL (≈ 209 µM)
MIC values previously reported [6]: 4 µg/mL (≈ 13.1 µM)

CC(=O)N1CCN(c2ccc(NCC3COC(Cn4ccnc4)(c4ccc(Cl)cc4Cl)O3)cc2)CC1 (centres unmarked) [ketaminazole]
IC50 ([2]; 0.5 μM CYP51, CYP51:AfCPR1 1:2, 50 μM lanosterol as substrate): 321 ± 42 nM
Kd ([3]; azole titrated against 2 μM CYP51, Morrison equation): 3 ± 1 nM
azole binding to CYP5218 (binding spectra) [4]: type II binding spectra
Kd ([4]; azole titrated against 2 μM CYP5218): ~12000 nM and ~11700 nM
Kd [7]: 731 nM
growth inhibition ([5]; 4 μg ml^−1): partial inhibition of growth
MIC [5]: 8 µg/mL (≈ 15.1 µM)
Kd [8]: 43 nM
sterol fraction (%) 4,4-dimethylzymosterol [9]: 0.62%
sterol fraction (%) Eburicol [9]: 14.63%
sterol fraction (%) Episterol [9]: 0.63%
sterol fraction (%) Ergosta-5,7-dienol [9]: 13.85%
sterol fraction (%) Ergosta-7-enol [9]: 5.00%
sterol fraction (%) Ergosta-8,22-dienol [9]: 5.35%
sterol fraction (%) Ergosta-8-enol [9]: 0%
sterol fraction (%) Ergosterol [9]: 54.64%
sterol fraction (%) Fecosterol [9]: 0.54%
sterol fraction (%) Obtusifoliol [9]: 3.52%
sterol fraction (%) Cholesterol ([9]; cholesterol assimilated from growth media): 1.21%
